Laboratory results taken from PMC11215747, “Improved Rigidin-Inspired Antiproliferative Agents with Modifications on the 7-Deazahypoxanthine C7/C8 Ring Systems” (Journal of Medicinal Chemistry, 2024).
“Also recorded” adds a separate entry of the source. Read-outs that look alike come from different tables or passages of the source.

What was measured:
HeLa cells [1] = experiment: MTT antiproliferative assay against HeLa cells; assay type: cell-based, Human
Protocol: The 3-(4,5-dimethylthiazol-2-yl)-2,5-diphenyltetrazolium bromide (MTT) assay was employed to evaluate the antiproliferative activities of the synthesized 7-deazahypoxathine analogues. The HeLa, PNT1A, or PANC-1 cell lines were assessed by trypsinizing and seeding 4 × 10^3 cells per well into 96-well plates. Synthesized compounds were dissolved in DMSO at a concentration of either 50 mM or 100 mM before cell treatment. Cells were grown for 24 h and then treated with compounds at concentrations ranging from 0.04 to 100 μM and incubated for 48 h in 200 μL media. Twenty microliters of MTT reagent in serum-free medium (5 mg/mL) was added to each well and incubated further for 2 h. Media was removed and the resulting formazan crystals were resolubilized in 200 μL of DMSO. A Thermomax Molecular Device plate reader was utilized to measure A490. Experiments were performed in quadruplicate and repeated at least twice for each compound. The control comprised of cells treated with 0.1% DMSO. One micromolar phenyl arsine oxide (PAO) was utilized as a positive killing control. […]

[2] = Stability of compound in solution; assay type: physicochemical; settings: in solution / over time
HeLa cells [3] = experiment: Annexin V apoptosis assay and cell-fate tracking in HeLa cells; assay type: cell-based, Human; settings: 20 nM; for apoptosis at the 30 hour time point (Annexin V fluorescence): 6 biological replicates, one-way ANOVA amongst compounds; for total numbers of cells that died following mitotic arrest: single-cell tracking, >130 cells per treatment
Protocol: To directly assess apoptosis in living cells, HeLa cells were plated (six biological replicates per condition) in 96-well Imagelock Plates (Sartorius BA-04855) at a density of 1,562.5 cells/cm^2. The following day, cells were placed in media containing IncuCyte Annexin V Dye (Sartorius 4642) supplemented with either 0.1% Dimethyl sulfoxide or test compounds (20 nM), and plates were placed in a Sartorius Incucyte S3 live cell imaging system. Plates were scanned hourly, with phase contrast and green fluorescence images were acquired at three positions per well. Raw fluorescence data was processed using Incucyte software, and Prism Graphpad was used for data visualization and statistical analysis. To track individual cell fates, combined phase contrast/fluorescence time lapse sequences were exported from multiple wells per condition, and cell fates individual cells were scored and tabulated using Graphpad Prism software.

HeLa cells [4] = experiment: Microtubule organization by immunolabeling in HeLa cells; assay type: cell-based, Human; settings: 4 h; for effect on interphase microtubules / effect on spindle morphology: at GI50 concentrations
Protocol: To examine microtubule morphology in rigidin-treated cells, HeLa cells were incubated for 4 h in the presence or absence of test compound before being fixed with 3.7% formaldehyde in PBS and permeabilized with 0.1% Triton X-100 in PBS. After blocking the cells with 3% bovine serum albumin in PBS, they were probed with antibodies for the centromere marker CENP-B (Abcam, code ab25734) and tubulin (Sigma, code sc-53029), which were detected with Alexa Fluor-labeled secondary antibodies (Thermofisher). Hoechst 33342 (1 mg/mL, Thermofisher H3570) was used to stain DNA. Samples were mounted on glass slides and imaged using Andor Dragonfly 505 spinning disk confocal system mounted on an Olympus IX83 inverted microscope. Figures were created with Adobe Photoshop CS5. All drugs were resuspended in DMSO, and 0.1% DMSO served as a carrier control.

PNT1A cells = experiment: MTT cytotoxicity assay against normal epithelial cell line PNT1A; assay type: cell-based; settings: molecular formula strings CSV, read-out: PNT1A GI50
Protocol: The 3-(4,5-dimethylthiazol-2-yl)-2,5-diphenyltetrazolium bromide (MTT) assay was employed to evaluate the antiproliferative activities of the synthesized 7-deazahypoxathine analogues. The HeLa, PNT1A, or PANC-1 cell lines were assessed by trypsinizing and seeding 4 × 10^3 cells per well into 96-well plates. Synthesized compounds were dissolved in DMSO at a concentration of either 50 mM or 100 mM before cell treatment. Cells were grown for 24 h and then treated with compounds at concentrations ranging from 0.04 to 100 μM and incubated for 48 h in 200 μL media. Twenty microliters of MTT reagent in serum-free medium (5 mg/mL) was added to each well and incubated further for 2 h. Media was removed and the resulting formazan crystals were resolubilized in 200 μL of DMSO. A Thermomax Molecular Device plate reader was utilized to measure A490. Experiments were performed in quadruplicate and repeated at least twice for each compound. The control comprised of cells treated with 0.1% DMSO. One micromolar phenyl arsine oxide (PAO) was utilized as a positive killing control.

[5] = set-up: method as in PMID 23927793; settings: cell line not given; cited from earlier work
tubulin = target: T1, tubulin (Sus scrofa, UniProt P02554); experiment: Fluorescence-based tubulin polymerization assay; assay type: biochemical; settings: relative to 1% DMSO control
T1 construct: purchased Cytoskeleton, Inc
Protocol: The fluorescence-based tubulin polymerization assay from Cytoskeleton, Inc. was used. […] The tubulin reaction mixture was prepared per manufacturer’s instructions, kept on ice, and used within ∼15 min of preparation. A Biotek Synergy H4 hybrid multimode plate reader was preheated to 37 °C. Prior to starting the assay, a half-area black 96-well plate was preheated within the plate reader. A volume of 5 μL of each of the tested samples was pipetted into separate wells of the plate and incubated in the warm plate reader for 1 min.

[6] = Aqueous solubility by laser nephelometry; assay type: physicochemical; settings: initial analysis
[7] = Homo sapiens, MTT assay, 48 h treatment, relative to DMSO control, two independent determinations, each in quadruplicate, read-out: GI50 (μM)± SD
[8] = Homo sapiens, MTT, 48 h, average and SD from two independent determinations, each in quadruplicate (footnote c), read-out: GI50 (μM) ± SD
[9] = 25 μM, averaged from two experiments

T1 sequence (P02554 whole entry): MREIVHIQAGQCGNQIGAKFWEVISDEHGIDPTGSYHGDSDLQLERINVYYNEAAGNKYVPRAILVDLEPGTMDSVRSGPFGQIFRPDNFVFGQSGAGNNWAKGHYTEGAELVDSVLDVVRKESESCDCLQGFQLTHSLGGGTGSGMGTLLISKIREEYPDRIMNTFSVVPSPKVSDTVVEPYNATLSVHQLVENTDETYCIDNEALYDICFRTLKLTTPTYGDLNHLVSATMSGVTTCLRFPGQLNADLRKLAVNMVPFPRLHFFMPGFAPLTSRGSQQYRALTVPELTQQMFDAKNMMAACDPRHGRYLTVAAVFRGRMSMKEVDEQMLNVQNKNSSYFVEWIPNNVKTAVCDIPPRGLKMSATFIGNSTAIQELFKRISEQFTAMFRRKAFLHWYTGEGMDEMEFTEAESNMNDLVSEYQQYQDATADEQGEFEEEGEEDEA
T1 sequence (P02550 whole entry partner): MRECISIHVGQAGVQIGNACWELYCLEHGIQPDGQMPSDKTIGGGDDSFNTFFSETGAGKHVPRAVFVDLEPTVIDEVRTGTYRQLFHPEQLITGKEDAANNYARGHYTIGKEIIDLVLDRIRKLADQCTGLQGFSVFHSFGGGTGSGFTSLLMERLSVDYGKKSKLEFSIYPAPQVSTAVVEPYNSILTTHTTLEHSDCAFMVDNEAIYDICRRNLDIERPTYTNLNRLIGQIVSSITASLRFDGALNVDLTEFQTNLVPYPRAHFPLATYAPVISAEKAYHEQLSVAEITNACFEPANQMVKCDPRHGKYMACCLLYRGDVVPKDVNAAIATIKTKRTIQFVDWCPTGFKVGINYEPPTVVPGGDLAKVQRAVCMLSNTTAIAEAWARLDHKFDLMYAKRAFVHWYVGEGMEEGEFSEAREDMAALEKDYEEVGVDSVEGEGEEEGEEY

## 6-[4-(2-Ethoxyethoxy)benzoyl]-5-(6-fluoropyridin-2-yl)-2-(pent-4-yn-1-yl)-1,7-dihydro-4H-pyrrolo[2,3-d]pyrimidin-4-one [Compound 61]
HeLa cells [1]; tested once, compound degraded in solution, read-out: GI50
  GI50: 0.0224 µM
[2]
  stability: unstable over time; also recorded: clear degradation of the compound in solution

## 5-(3,5-Difluorophenyl)-6-[4-(2-ethoxyethoxy)benzoyl]-2-(pent-4-yn-1-yl)-1,7-dihydro-4H-pyrrolo[2,3-d]pyrimidin-4-one [Compound 60]
HeLa cells [3]
  apoptosis at the 30 hour time point (Annexin V fluorescence): no significant differences
  total numbers of cells that died following mitotic arrest: 85%
HeLa cells [4]
  effect on interphase microtubules: no striking effects on interphase microtubules
  effect on spindle morphology: remarkable effects on the spindle morphology
PNT1A cells
  GI50: 48 ± 10 nM

## O=C(c1ccc(OCc2ccccc2)cc1)c1[nH]c2[nH]cnc(=O)c2c1-c1ccccc1 [Compound 32]
[5]
  GI50: 45 ± 4 nM

## CC(=O)O[C@H]1C(=O)[C@@]2(C)[C@H]([C@H](OC(=O)c3ccccc3)[C@]3(O)C[C@H](OC(=O)[C@H](O)[C@@H](NC(=O)c4ccccc4)c4ccccc4)C(C)=C1C3(C)C)[C@]1(OC(C)=O)CO[C@@H]1C[C@@H]2O [Paclitaxel, paclitaxel, reference compound]
tubulin; 3 μM
  effect on in vitro tubulin polymerization: promotes microtubule formation
tubulin; 3 μM, listed as paclitaxel
  effect on in vitro tubulin polymerization: potent enhancement of microtubule formation

## CC#CCCc1nc(=O)c2c(-c3ccccc3)c(C(=O)c3ccc(N4CCOCC4)cc3)[nH]c2[nH]1 [Compound 30, 6-(4-Morpholinobenzoyl)-2-(pent-3-yn-1-yl)-5-phenyl-1,7-dihydro-4H-pyrrolo[2,3-d]pyrimidin-4-one]
HeLa cells [1]; [7]
  GI50: 0.043 ± 0.002 µM
HeLa cells [1]; terminal versus internal alkyne analogues (1, 27 vs 31, 30)
  reduction in activity following isomerization to the internal alkyne: 2 fold

## C#CCCCc1nc(=O)c2c(-c3ccccc3)c(C(=O)c3ccc(OCCN4CCOCC4)cc3)[nH]c2[nH]1 [Compound 34, 6-[4-(2-Morpholinoethoxy)benzoyl]-2-(pent-4-yn-1-yl)-5-phenyl-1,7-dihydro-4H-pyrrolo[2,3-d]pyrimidin-4-one]
[6]
  aqueous solubility relative to the other compounds: significantly more soluble
HeLa cells [4]
  effect on interphase microtubules: no striking effects on interphase microtubules
  effect on spindle morphology: remarkable effects on the spindle morphology
HeLa cells [4]; lower concentrations (GI25)
  syntelic chromosome attachments: still prevalent
HeLa cells [1]
  decrease in antiproliferative activity compared to lead compound 1: ~20 fold
HeLa cells [1]; [8]
  GI50: 0.444 ± 0.03 µM
tubulin; [9]
  effect on in vitro tubulin polymerization: potent inhibition of microtubule assembly; also recorded: completely suppress tubulin polymerization

## C#CCCCc1nc(=O)c2c(-c3ccccc3C)c(C(=O)c3ccccc3)[nH]c2[nH]1 [Compound 13, 6-Benzoyl-2-(pent-4-yn-1-yl)-5-(o-tolyl)-1,7-dihydro-4H-pyrrolo[2,3-d]pyrimidin-4-one]
HeLa cells [1]; [7]
  GI50: 0.142 ± 0.044 µM

## C#CCCCc1nc(=O)c2c(-c3ccccc3)c(C(=O)c3ccc(N4CCOCC4)cc3)[nH]c2[nH]1 [Compound 27, 6-(4-Morpholinobenzoyl)-2-(pent-4-yn-1-yl)-5-phenyl-1,7-dihydro-4H-pyrrolo[2,3-d]pyrimidin-4-one]
PNT1A cells; Homo sapiens, PNT1A
  GI50: 49 ± 20 nM
HeLa cells [1]; [7]
  GI50: 0.025 ± 0.002 µM

## C#CCCCc1nc(=O)c2c(-c3ccccc3)c(C(=O)c3ccccc3C)[nH]c2[nH]1 [Compound 21, 6-(2-Methylbenzoyl)-2-(pent-4-yn-1-yl)-5-phenyl-1,7-dihydro-4H-pyrrolo[2,3-d]pyrimidin-4-one]
PNT1A cells; Homo sapiens, PNT1A
  GI50: 53 ± 12 nM
HeLa cells [1]; [7]
  GI50: 0.062 ± 0.005 µM

## C#CCCCc1nc(=O)c2c(-c3ccc(N4CCOCC4)cc3)c(C(=O)c3ccccc3)[nH]c2[nH]1 [Compound 15, 6-Benzoyl-5-(4-morpholinophenyl)-2-(pent-4-yn-1-yl)-1,7-dihydro-4H-pyrrolo[2,3-d]pyrimidin-4-one]
HeLa cells [1]
  decrease in antiproliferative activity compared to lead compound 1: 500 fold
HeLa cells [1]; [7]
  GI50: 11.3 ± 0.65 µM

## C#CCCCc1nc(=O)c2c(-c3c(C)cccc3C)c(C(=O)c3ccccc3)[nH]c2[nH]1 [Compound 14, 6-Benzoyl-5-(2,6-dimethylphenyl)-2-(pent-4-yn-1-yl)-1,7-dihydro-4H-pyrrolo[2,3-d]pyrimidin-4-one]
HeLa cells [1]; [7]
  GI50: 2.3 ± 0.09 µM

## 6-[4-(2-Ethoxyethoxy)benzoyl]-5-(3-fluorophenyl)-2-(pent-4-yn-1-yl)-1,7-dihydro-4H-pyrrolo[2,3-d]pyrimidin-4-one [Compound 59]
HeLa cells [3]
  apoptosis at the 30 hour time point (Annexin V fluorescence): no significant differences
  total numbers of cells that died following mitotic arrest: 87%
HeLa cells [4]
  effect on interphase microtubules: no striking effects on interphase microtubules
  effect on spindle morphology: remarkable effects on the spindle morphology
PNT1A cells
  GI50: 41 ± 11 nM
HeLa cells [1]; MTT, 48 h, average of eight repeats determined over 5 weeks (footnote d), read-out: GI50 (μM) ± SD
  GI50: 0.016 ± 0.004 µM
tubulin; [9]
  effect on in vitro tubulin polymerization: potent inhibition of microtubule assembly; also recorded: completely suppress tubulin polymerization

## C#CCCCc1nc(=O)c2c(-c3ccccc3)c(C(=O)c3ccc(OCCN4CCCC4)cc3)[nH]c2[nH]1 [Compound 35, 2-(Pent-4-yn-1-yl)-5-phenyl-6-{4-[2-(pyrrolidin-1-yl)ethoxy]benzoyl}-1,7-dihydro-4H-pyrrolo[2,3-d]pyrimidin-4-one]
[6]
  aqueous solubility relative to the other compounds: significantly more soluble
HeLa cells [1]
  decrease in antiproliferative activity compared to lead compound 1: ~150 fold
HeLa cells [1]; [8]
  GI50: 2.87 ± 0.103 µM
